Measured values taken from patent US10597366B2, “Aryl ethers and uses thereof” (Peloton Therapeutics, Inc., priority 2013, dated 2020).
Read-outs that look alike come from different tables or passages of the source.

Test system: 786-O-Hif-Luc cells (luciferase gene driven by multiple HIF responsive elements)
Experiment: Luciferase Assay
Format: cell-based
Settings: 24 h, read-out: Mean Luciferease EC50
Protocol: A pool of infected cells were then selected against 2 μg/mL of puromycin (P8833, Sigma) for 10 days followed by limited dilution to select single clones.
Each concentration was tested in triplicate. After about 24 hours, luciferase activity was determined using ONE-Glo Luciferase Assay Reagent (E6110, Promega) following the manufacturer's recommended procedure. EC50 were calculated by using Dotmatics software.

[1] = 786-O-Hif-Luc cells, about 24 hours

| Compound | EC50 | EC50 [1] |
| --- | --- | --- |
| N#Cc1cc(Cl)cc(Oc2ccc(S(=O)(=O)CF)c3c2CC(F)(F)[C@H]3O)c1 [Compound 167, (S)-3-Chloro-5-((2,2-difluoro-7-((fluoromethyl)sulfonyl)-1-hydroxy-2,3-dihydro-1H-inden-4-yl)oxy)benzonitrile] | 16 nM | – |
| O=S(=O)(c1ccc(Oc2cc(F)cc(F)c2)c2c1C=CC2)C(F)F [Compound 21, 4-((Difluoromethyl)sulfonyl)-7-(3,5-difluorophenoxy)-1H-indene] | – | 1540 nM |
| Cc1c(S(C)(=O)=O)ccc(Oc2cc(F)cc(Cl)c2)c1C#N [Compound 50, 6-(3-Chloro-5-fluorophenoxy)-2-methyl-3-(methylsulfonyl)benzonitrile] | – | 1600 nM |
| NS(=O)(=O)c1ccc(Oc2cc(F)cc(F)c2)c2c1[C@H](O)C(F)(F)C2 [Compound 256, (S)-7-(3,5-Difluorophenoxy)-2,2-difluoro-3-hydroxy-2,3-dihydro-1H-indene-4-sulfonamide] | 49 nM | – |
| O=S(=O)(c1ccc(Oc2c(F)ccc3[nH]ncc23)c2c1C(O)C(F)(F)C2)C(F)(F)F (centres unmarked) [Compound 244, 2,2-Difluoro-4-((5-fluoro-1H-indazol-4-yl)oxy)-7-((trifluoromethyl)sulfonyl)-2,3-dihydro-1H-inden-1-ol] | – | 1710 nM |
| CS(=O)(=O)c1ccc(Oc2cc(F)cc(Cl)c2)c(C(F)F)c1CO [Compound 54, (3-(3-Chloro-5-fluorophenoxy)-2-(difluoromethyl)-6-(methylsulfonyl)phenyl)methanol] | – | 350 nM |
| N#Cc1cc(F)cc(Oc2ccc(S(=O)(=O)CCO)c3c2CC(F)(F)C3O)c1 (centres unmarked) [Compound 250, 3-((2,2-Difluoro-1-hydroxy-7-((2-hydroxyethyl)sulfonyl)-2,3-dihydro-1H-inden-4-yl)oxy)-5-fluorobenzonitrile] | – | 2950 nM |
| Cc1c(S(=O)(=O)C(F)F)ccc(Oc2cc(F)cc(Cl)c2)c1C#N [Compound 32, 6-(3-Chloro-5-fluorophenoxy)-3-((difluoromethyl)sulfonyl)-2-methylbenzonitrile] | – | 1900 nM |
| N#Cc1c(S(=O)(=O)C(F)F)ccc(Oc2cc(F)cc(Cl)c2)c1Cl [Compound 38, 2-Chloro-3-(3-chloro-5-fluorophenoxy)-6-((difluoromethyl)sulfonyl)benzonitrile] | – | 390 nM |
| N#Cc1cc(F)cc(Oc2ccc(S(=O)(=O)C(F)F)cc2C#N)c1 [Compound 134, 2-(3-Cyano-5-fluorophenoxy)-5-((difluoromethyl)sulfonyl)benzonitrile] | – | 2300 nM |
| O=S(=O)(c1ccc(Oc2ccc(F)c(Cl)c2)c2c1[C@H](O)CC2)C(F)F [Compound 157, (1R)-4-(3-Chloro-4-fluoro-phenoxy)-7-(difluoromethylsulfonyl)indan-1-ol] | – | 2500 nM |
| Cc1cc(Oc2cc(F)cc(C#N)c2)c2c(c1S(C)(=O)=O)C(O)C(F)(F)C2 (centres unmarked) [Compound 213, 3-((2,2-Difluoro-1-hydroxy-6-methyl-7-(methylsulfonyl)-2,3-dihydro-1H-inden-4-yl)oxy)-5-fluorobenzonitrile] | – | 770 nM |
| Cc1c(S(=O)(=O)C(F)F)ccc(Oc2cc(F)cc(C#N)c2)c1C#N [Compound 33, 6-(3-Cyano-5-fluorophenoxy)-3-((difluoromethyl)sulfonyl)-2-methylbenzonitrile] | – | 2900 nM |
| O=Cc1c(S(=O)(=O)C(F)(F)F)ccc(Oc2cc(F)cc(Cl)c2)c1Cl [Compound 112, 2-Chloro-3-(3-chloro-5-fluorophenoxy)-6-((trifluoromethyl)sulfonyl)benzaldehyde] | – | 340 nM |
| N#Cc1cc(F)cc(Oc2ccc(S(=O)(=O)C(F)(F)F)c3c2CC[C@H]3O)c1 [Compound 57, (R)-3-Fluoro-5-((1-hydroxy-7-((trifluoromethyl)sulfonyl)-2,3-dihydro-1H-inden-4-yl)oxy)benzonitrile] | 110 nM | – |
| N#Cc1cncc(Oc2ccc(S(=O)(=O)C(F)(F)F)c3c2CCC3O)c1 (centres unmarked) [Compound 220, 5-((1-Hydroxy-7-((trifluoromethyl)sulfonyl)-2,3-dihydro-1H-inden-4-yl)oxy)nicotinonitrile] | – | 2100 nM |
| N#Cc1cc(F)cc(Oc2ccc(S(=O)(=O)C(F)F)c3c2CC(F)(F)[C@H]3N)c1 [Compound 207, (S)-3-((1-Amino-7-((difluoromethyl)sulfonyl)-2,2-difluoro-2,3-dihydro-1H-inden-4-yl)oxy)-5-fluorobenzonitrile] | – | 830 nM |
| COC(=O)/C=C/c1c(S(=O)(=O)C(F)(F)F)ccc(Oc2cc(F)cc(C#N)c2)c1C [Compound 147, Methyl (E)-3-[3-(3-cyano-5-fluoro-phenoxy)-2-methyl-6-(trifluoromethylsulfonyl)phenyl]prop-2-enoate] | – | 7600 nM |
| C[C@@]1(F)Cc2c(Oc3cc(F)cc(C#N)c3)ccc(S(C)(=O)=O)c2[C@@H]1O [Compound 300, 3-fluoro-5-(((1S,2R)-2-fluoro-1-hydroxy-2-methyl-7-(methylsulfonyl)-2,3-dihydro-1H-inden-4-yl)oxy)benzonitrile] | – | 2800 nM |

| Compound | EC50 | EC50 [1] |
| --- | --- | --- |
| O=S(=O)(c1ccc(Oc2cccc3[nH]ncc23)c2c1C(O)C(F)(F)C2)C(F)(F)F (centres unmarked) [Compound 243] | – | 920 nM |
| CS(=O)(=O)c1ccc(Oc2cc(F)cc(C#N)c2)c2c1C(=O)C(F)(Cl)C2 (centres unmarked) [Compound 269, 3-((2-chloro-2-fluoro-7-(methylsulfonyl)-1-oxo-2,3-dihydro-1H-inden-4-yl)oxy)-5-fluorobenzonitrile] | – | 19400 nM |
| N#Cc1cc(F)cc(Oc2ccc(S(=O)(=O)C(F)(F)F)c3c2[C@@H](N)C[C@H]3O)c1 (relative stereo) [Compound 279, 3-((cis-3-amino-1-hydroxy-7-((trifluoromethyl)sulfonyl)-2,3-dihydro-1H-inden-4-yl)oxy)-5-fluorobenzonitrile] | – | 5900 nM |
| O=S(=O)(c1ccc(Oc2cc(F)c(F)c3[nH]ncc23)c2c1C(O)C(F)(F)C2)C(F)(F)F (centres unmarked) [Compound 261, 4-((6,7-Difluoro-1H-indazol-4-yl)oxy)-2,2-difluoro-7-((trifluoromethyl)sulfonyl)-2,3-dihydro-1H-inden-1-ol] | – | 1650 nM |
| CS(=O)(=O)c1ccc(Oc2cc(F)cc(C#N)c2)c2c1[C@H](O)C[C@@H]2F [Compound 295, 3-fluoro-5-[(1R,3S)-3-fluoro-1-hydroxy-7-methylsulfonyl-indan-4-yl]oxy-benzonitrile] | – | 390 nM |
| N#Cc1cccc(Oc2ccc(S(=O)(=O)C(F)F)c(CO)c2Br)c1 [Compound 81, 3-(2-Bromo-4-((difluoromethyl)sulfonyl)-3-(hydroxymethyl)phenoxy)benzonitrile] | – | 850 nM |
| O=S(=O)(c1ccc(Oc2ccc(F)c(Cl)c2)c2c1[C@H](O)C(F)(F)C2)C(F)(F)F [Compound 221, (S)-4-(3-Chloro-4-fluorophenoxy)-2,2-difluoro-7-((trifluoromethyl)sulfonyl)-2,3-dihydro-1H-inden-1-ol] | – | 26 nM |
| CS(=O)(=O)c1ccc(Oc2cc(F)cc(C#N)c2)c2c1[C@H](O)C(F)(F)[C@H]2F [Compound 293, 3-fluoro-5-[(1S,3S)-2,2,3-trifluoro-1-hydroxy-7-methylsulfonyl-indan-4-yl]oxy-benzonitrile] | – | 780 nM |
| O=S(=O)(CF)c1ccc(Oc2cc(F)cc(Cl)c2)c2c1[C@H](O)C(F)(F)C2 [Compound 65, (S)-4-(3-Chloro-5-fluorophenoxy)-2,2-difluoro-7-((fluoromethyl)sulfonyl)-2,3-dihydro-1H-inden-1-ol] | – | 6 nM |
| CS(=O)(=O)c1ccc(Oc2cccc(C#N)c2)c2c1[C@H](O)C(F)(F)C2 [Compound 162, 3-[(1S)-2,2-Difluoro-1-hydroxy-7-methylsulfonyl-indan-4-yl]oxybenzonitrile] | – | 63 nM |
| Cc1c(Oc2cc(F)cc(C#N)c2)ccc(S(=O)(=O)C(F)(F)F)c1Cl [Compound 144, 3-Fluoro-5-[3-chloro-2-methyl-4-(trifluoromethylsulfonyl)phenoxy]benzonitrile] | – | 390 nM |
| N#Cc1cc(F)cc(Oc2ccc(S(N)(=O)=O)c3c2[C@@H](F)[C@@H](F)[C@H]3O)c1 [Compound 336, (1R,2S,3S)-7-(3-cyano-5-fluoro-phenoxy)-1,2-difluoro-3-hydroxy-indane-4-sulfonamide] | – | 67 nM |
| CS(=O)(=O)c1ccc(Oc2cc(F)cc(C#N)c2)c2c1[C@H](O)[C@@H](F)C2 [Compound 271, 3-fluoro-5-(((1S,2S)-2-fluoro-1-hydroxy-7-(methylsulfonyl)-2,3-dihydro-1H-inden-4-yl)oxy)benzonitrile] | 470 nM | – |
| N#Cc1cc(F)cc(Oc2ccc(S(=O)(=O)C(F)F)c3c2CC[C@H]3O)c1 [Compound 155, 3-[(1R)-7-(difluoromethylsulfonyl)-1-hydroxy-indan-4-yl]oxy-5-fluoro-benzonitrile] | 130 nM | – |
| CS(=N)(=O)c1ccc(Oc2cc(F)cc(F)c2)c2c1C(O)CC2 (centres unmarked) [Compound 190, (7-(3,5-Difluorophenoxy)-3-hydroxy-2,3-dihydro-1H-inden-4-yl)(imino)(methyl)-λ^6-sulfanone] | – | 12700 nM |
| N#Cc1cncc(Oc2ccc(S(=O)(=O)C(F)F)c3c2CC(F)(F)[C@H]3O)c1 [Compound 27, (S)-5-((7-((Difluoromethyl)sulfonyl)-2,2-difluoro-1-hydroxy-2,3-dihydro-1H-inden-4-yl)oxy)nicotinonitrile] | – | 160 nM |
| O=S(=O)(c1ccc(Oc2ccc(F)c(F)c2)c2c1C(O)CC2)C(F)(F)F (centres unmarked) [Compound 214, 4-(3,4-Difluorophenoxy)-7-((trifluoromethyl)sulfonyl)-2,3-dihydro-1H-inden-1-ol] | – | 1270 nM |
| O=S(=O)(c1ccc(Oc2cc(F)cc(Cl)c2)c(Br)c1CNCc1ccccc1)C(F)(F)F [Compound 110, N-Benzyl-1-(2-bromo-3-(3-chloro-5-fluorophenoxy)-6-((trifluoromethyl)sulfonyl)phenyl)methanamine] | – | 6500 nM |
| O=S(=O)(c1ccc(Oc2ccc(F)c(Cl)c2)c2c1[C@H](O)C(F)(F)C2)C(F)F [Compound 26, (S)-4-(3-Chloro-4-fluorophenoxy)-7-((difluoromethyl)sulfonyl)-2,2-difluoro-2,3-dihydro-1H-inden-1-ol] | – | 68 nM |
